One data set concerns Escherichia coli. The data set can be described thus: Antimicrobial activity against Escherichia coli ATCC 25922 at 20 ug per disk after 18 to 24 hrs by agar diffusion assay. The format is functional. The settings on record: read-out: DIZ.
A further data set relates to Mycobacterium avium. Briefly: Antimycobacterial activity against Mycobacterium avium NCTC 08559 after 7 days by resazurin microtiter assay. In kind it is functional. The settings on record: NCTC 08559, 168 h. For orientation: Alamar Blue is a resazurin reagent that responds to reducing activity.
A further data set has as its system Mycobacterium gordonae. The data set can be described thus: Antimycobacterial activity against Mycobacterium gordonae NCTC 10267 after 7 days by resazurin microtiter assay. The settings on record: NCTC 10267, 168 h. The format is functional.
The test system of data set [1] is Mycobacterium intracellulare. Briefly: Antimycobacterial activity against Mycobacterium intracellulare NCTC 10425 after 7 days by resazurin microtiter assay. In kind it is functional. The settings on record: NCTC 10425, 168 h.
Data set [2] concerns the target T1, Sterol 14alpha-demethylase (Mycobacterium tuberculosis) (UniProt P9WPP9).
T1 sequence (whole entry): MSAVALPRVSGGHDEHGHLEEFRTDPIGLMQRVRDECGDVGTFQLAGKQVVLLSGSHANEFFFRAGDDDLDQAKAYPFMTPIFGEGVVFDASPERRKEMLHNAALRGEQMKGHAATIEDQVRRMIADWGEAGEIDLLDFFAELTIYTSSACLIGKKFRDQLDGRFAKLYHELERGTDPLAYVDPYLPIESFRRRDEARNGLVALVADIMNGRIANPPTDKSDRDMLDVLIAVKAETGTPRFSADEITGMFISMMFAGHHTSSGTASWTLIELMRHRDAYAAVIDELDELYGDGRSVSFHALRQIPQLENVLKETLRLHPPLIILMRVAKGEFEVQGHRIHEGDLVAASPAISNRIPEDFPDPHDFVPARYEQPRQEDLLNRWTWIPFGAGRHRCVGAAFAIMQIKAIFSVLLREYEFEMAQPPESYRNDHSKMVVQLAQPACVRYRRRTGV
The data set can be described thus: Binding affinity to N-terminal His-tagged Mycobacterium tuberculosis H37Rv ATCC 25618 CYP51 expressed in Escherichia coli Rosetta (DE3) by spectrophotometric analysis.

Data set [3] has as its system Mycobacterium scrofulaceum. Briefly: Antimycobacterial activity against Mycobacterium scrofulaceum NCTC 10803 after 7 days by resazurin microtiter assay. The format is functional. The settings on record: 168 h.
In another data set the test system is Mycobacterium kansasii. Briefly: Antimycobacterial activity against Mycobacterium kansasii NCTC 10268 after 7 days by resazurin microtiter assay. In kind it is functional. The settings on record: NCTC 10268, 168 h.
A further data set has as its system Staphylococcus aureus. Briefly: Antimicrobial activity against Staphylococcus aureus ATCC 25923 at 20 ug per disk after 18 to 24 hrs by agar diffusion assay. The settings on record: read-out: DIZ. In kind it is functional.
The subject of data set [4] is Mycobacterium tuberculosis. The data set can be described thus: Antimycobacterial activity against Mycobacterium tuberculosis H37Ra […] after 7 days by resazurin microtiter assay. The format is functional. The settings on record: 168 h.
The next data set has as its system Mycobacterium marinum. Briefly: Antimycobacterial activity against Mycobacterium marinum CIP 6423 after 7 days by resazurin microtiter assay. The format is functional. The settings on record: CIP 6423, 168 h.
Data set [5] can be described thus: Cytotoxicity against African green monkey Vero cells after 72 hrs by MTT assay. The format is cell-based. The settings on record: chlorocebus sabaeus.
A further data set deals with Candida albicans. The data set can be described thus: Antimicrobial activity against Candida albicans 685 clinical isolate at 20 ug per disk after 18 to 24 hrs by agar diffusion assay. In kind it is functional. The settings on record: read-out: DIZ.

≈ marks a conversion by molar mass, not a printed value. Calls of active or inactive are those of the source.

A word on the MIC: it is the smallest concentration in the dilution series that meets the test's criterion for growth inhibition. Broadly, the CC50 is the concentration that lowers cell viability or growth by half. Take `N/C(=N/NC(CC(=O)c1ccc(-n2ccnc2)cc1)c1ccccc1[N+](=O)[O-])c1ccccn1` (stereo not given): the zone of inhibition at 20 µg/disc stood at 6 mm in the data set with Escherichia coli, 13 mm in the data set with Staphylococcus aureus and 4 mm with Candida albicans. The MIC turned out to be 70.3 µM (≈ 32 µg/mL) against Mycobacterium avium; 8.8 µM (≈ 4.01 µg/mL) in the data set with Mycobacterium gordonae; 140 µM (≈ 63.8 µg/mL) in data set [1]; 8.8 µM (≈ 4.01 µg/mL) in data set [3]; 17.6 µM (≈ 8.02 µg/mL) in the data set with Mycobacterium kansasii; 8.8 µM (≈ 4.01 µg/mL) in [4]. The lowest concentration to inhibit growth against Mycobacterium marinum (MIC) was 35.1 µM (≈ 16 µg/mL). Also, the result in data set [2] was inactive. The same compound had a CC50 at 72 h in data set [5] of 48 µM.
As to `N/C(=N/NC(CC(=O)c1ccc(-n2ccnc2)cc1)c1ccc([N+](=O)[O-])cc1)c1ccccn1` (stereo not given), the zone of inhibition at 20 µg/disc in the data set on Escherichia coli stood at 5 mm; in the data set with Staphylococcus aureus, 13 mm; in the data set with Candida albicans, 5 mm. For the same compound, the minimal inhibitory concentration (MIC) in the data set with Mycobacterium avium was 140 µM (≈ 63.8 µg/mL); against Mycobacterium gordonae, 8.8 µM (≈ 4.01 µg/mL); in data set [1], over 140 µM; in data set [3] it was 8.8 µM (≈ 4.01 µg/mL); against Mycobacterium kansasii it was 35.1 µM (≈ 16 µg/mL); in data set [4] it was 4.4 µM (≈ 2 µg/mL). The compound also showed a minimum inhibitory concentration (MIC) in the data set on Mycobacterium marinum of 35.1 µM (≈ 16 µg/mL). Besides, the result in data set [2] was inactive. In data set [5], this compound came in with a CC50 at 72 h of 23.1 µM.
Consider `N/C(=N/NC(CC(=O)c1ccc(-n2ccnc2)cc1)c1ccc(Cl)cc1)c1ccccn1` (stereo not given), for which the zone of inhibition at 20 µg/disc worked out at 8 mm in the data set on Escherichia coli, 20 mm with Staphylococcus aureus and 9 mm in the data set with Candida albicans. Moreover, the MIC was 72 µM (≈ 32 µg/mL) against Mycobacterium avium; 4.5 µM (≈ 2 µg/mL) in the data set with Mycobacterium gordonae; 72 µM (≈ 32 µg/mL) in [1]; 18 µM (≈ 8.01 µg/mL) in [3]; 9 µM (≈ 4 µg/mL) in the data set on Mycobacterium kansasii; 9 µM (≈ 4 µg/mL) in data set [4]. In the data set on Mycobacterium marinum, this compound came in with an MIC of 18 µM (≈ 8.01 µg/mL). Besides, the outcome in data set [2] was inactive. Besides, in data set [5], the CC50 at 72 h turned out to be 78.8 µM.
Turning to `Clc1ccc(COC(Cn2ccnc2)c2ccc(Cl)cc2Cl)cc1` (stereo not given), in data set [2], the result was Active.
In the case of `N/C(=N/NC(CC(=O)c1ccc(-n2ccnc2)cc1)c1ccc(F)cc1)c1ccccn1` (stereo not given), the zone of inhibition at 20 µg/disc turned out to be 6 mm with Escherichia coli, 20 mm in the data set on Staphylococcus aureus and 6 mm in the data set with Candida albicans. For the same compound, the MIC stood at 74.7 µM (≈ 32 µg/mL) against Mycobacterium avium; 18.7 µM (≈ 8.01 µg/mL) against Mycobacterium gordonae; 74.7 µM (≈ 32 µg/mL) in data set [1]; 18.7 µM (≈ 8.01 µg/mL) in data set [3]; 9.3 µM (≈ 3.98 µg/mL) with Mycobacterium kansasii; 9.3 µM (≈ 3.98 µg/mL) in data set [4]. This compound also yielded a minimum inhibitory concentration (MIC) in the data set on Mycobacterium marinum of 18.7 µM (≈ 8.01 µg/mL). Moreover, the outcome in data set [2] was inactive. In addition, the midpoint of cytotoxicity in data set [5], the CC50 at 72 h, lay at 78.8 µM.
For `N/C(=N/NC(CC(=O)c1ccc(-n2ccnc2)cc1)c1cccc(F)c1)c1ccccn1` (stereo not given), the zone of inhibition at 20 µg/disc was determined as 7 mm in the data set with Escherichia coli, 16 mm in the data set on Staphylococcus aureus and 11 mm in the data set with Candida albicans. Also, the MIC against Mycobacterium avium worked out at 74.7 µM (≈ 32 µg/mL); against Mycobacterium gordonae it was 2.3 µM (≈ 0.985 µg/mL); in [1] it was 74.7 µM (≈ 32 µg/mL); in [3], 9.3 µM (≈ 3.98 µg/mL); against Mycobacterium kansasii, 9.3 µM (≈ 3.98 µg/mL); in [4], 4.7 µM (≈ 2.01 µg/mL). Inhibition of growth in the data set on Mycobacterium marinum (MIC) required 18.7 µM (≈ 8.01 µg/mL). Besides, the outcome in data set [2] was inactive. Further, half-maximal cytotoxicity in [5] (CC50 at 72 h) was put at 26.5 µM.
Regarding `N/C(=N/NC(CC(=O)c1ccc(-n2ccnc2)cc1)c1cccc(Cl)c1)c1ccccn1` (stereo not given), the figures for the zone of inhibition at 20 µg/disc in the data set on Escherichia coli, in the data set on Staphylococcus aureus and in the data set on Candida albicans were 7 mm, 22 mm and 11 mm, respectively. Also, the MIC against Mycobacterium avium amounted to 72 µM (≈ 32 µg/mL); against Mycobacterium gordonae it was 4.5 µM (≈ 2 µg/mL); in data set [1], 72 µM (≈ 32 µg/mL); in [3], 18 µM (≈ 8.01 µg/mL); against Mycobacterium kansasii, 9 µM (≈ 4 µg/mL); in data set [4], 18 µM (≈ 8.01 µg/mL). The same compound yielded a minimal inhibitory concentration (MIC) in the data set on Mycobacterium marinum of 18 µM (≈ 8.01 µg/mL). Also, the result in data set [2] was inactive. Further, it took 68.6 µM to reach half-maximal cytotoxicity in data set [5] (CC50 at 72 h).
With `NNC(=O)c1ccncc1` [ISONIAZID], the minimal inhibitory concentration (MIC) was 116 µM (≈ 15.9 µg/mL) against Mycobacterium avium; 116 µM (≈ 15.9 µg/mL) in the data set on Mycobacterium gordonae; over 467 µM in [1]; 116 µM (≈ 15.9 µg/mL) in data set [3]; 0.9 µM (≈ 0.123 µg/mL) in [4]; 116 µM (≈ 15.9 µg/mL) in the data set on Mycobacterium marinum. In data set [5], this compound yielded a CC50 at 72 h of over 7000 µM.

The values are drawn from ChEMBL document CHEMBL3817752, “Antimycobacterial activity of new N(1)-[1-[1-aryl-3-[4-(1H-imidazol-1-yl)phenyl]-3-oxo]propyl]-pyridine-2-carboxamidrazone derivatives” (Bioorg Med Chem Lett, 2016).
